Values after ≈ are worked out from the molar mass of the structure shown. Where two headings read alike, the source gives them in different places.
Assays:
Gardnerella swidsinskii = assay: microbe, parasite or virus in culture; type: cell-based; conditions: Gardnerella swidsinskii
Description: (§1) The minimum inhibitory concentration (MIC), which is a standard measure of the activity of antimicrobials, was determined according to the Clinical and Laboratory Standards Institute protocol (2018) Methods for Antimicrobial Susceptibility Testing of Anaerobic Bacteria (Carpenter et al., 2018). […] Controls for growth in the absence of antimicrobials were also included. OD600 was recorded by a microplate reader (Tecan, Grodig, Austria) after incubation at 37° C. for 48 h or, for some fast-growing strains, after incubation for 24 h. Absence of growth was defined as OD600≤0.14. […] MIC readout and MBC99.5 spotting were performed after 72 h incubation for H2B10B11.
(§2) However, topical intravaginal antibiotic administration is recommended for BV therapy, which allows to reach concentrations of active ingredients in the mg/mL range. […] Abbreviations: n.d., not determined; SJHB, St. Jan Hospital Bruges.
(§3) MIC90 is defined as the MIC value for 90% of the tested strains. For PM-477 (H2B10), the resistance breakpoint is not defined, therefore a “% resistant” is not defined (n.d.).

Gardnerella vaginalis = assay: microbe, parasite or virus in culture; type: cell-based; conditions: Gardnerella vaginalis
Description: as §1, §2, §3

All Gardnerella = assay: MIC assessment in suspension, panel of 22 strains; type: cell-based, Gardnerella spp.
Description: as §1, §2, §3

Gardnerella leopoldii = assay: MIC / MBC99.5 assessment in suspension; type: cell-based; conditions: Gardnerella leopoldii; for MIC: read-out: MIC; for MBC: read-out: MBC99.5
Description: as §1, §2, §3

Gardnerella piotii = assay: MIC / MBC99.5 assessment in suspension; type: cell-based; conditions: Gardnerella piotii; for MIC: read-out: MIC
Description: as §1, §2, §3

[1] = test system: Gardnerella type strains and patient isolates; assay: MIC and MBC99.5 on about 100 type strains and patient isolates of various origins; type: cell-based, Gardnerella spp.
Description: as §1
MIC and MBC99.5 of H2B10B11 on a panel of about 100 Gardnerella type strains and patient isolates from various geographic origins were determined following the CLSI protocol. […] For a subset of fast-growing strains thereof and for some additional strains, MIC determination was performed after 48 h of incubation to bridge the results to earlier assessed MIC values (FIG. 6). In total, MIC was determined for 104 different strains (the MIC of 15 strains was determined both, after 48 h and 72 h). […] The number of strains in each group is stated on the right site of the graph.

[2] = test system: Gardnerella strains from vaginal swabs of BV patients; assay: MIC and MBC99.5 on 18 in-house BV patient isolates; type: cell-based, Gardnerella spp.
Description: as §1

[3] = G. swidsinskii (BV7) UGent BV7.1, suspension
[4] = G. swidsinskii (Gs23) GS 10234, suspension
[5] = G. swidsinskii (Gs24) GS 9838-1(T), suspension
[6] = read-out: MBC99.5, G. swidsinskii (BV7) UGent BV7.1
[7] = read-out: MBC99.5, G. swidsinskii (Gs23) GS 10234
[8] = read-out: MBC99.5, G. swidsinskii (Gs24) GS 9838-1(T)
[9] = ATCC14018, 24 h, read-out: MBC99.5, G. vaginalis (Gv9) ATCC 14018(T), reduces CFU by 99.5% within 24 h
[10] = ATCC14018, G. vaginalis (Gv9) ATCC 14018(T), suspension
[11] = G. vaginalis (BV50) UGent BV50.1, suspension
[12] = G. vaginalis (FB049) UGent FB049-01, suspension
[13] = read-out: MBC99.5, G. vaginalis (BV111) UGent BV111.5
[14] = read-out: MBC99.5, G. vaginalis (FB049) UGent FB049-01
[15] = G. leopoldii (BV13) UGent BV13.2, suspension
[16] = G. leopoldii (BV13) UGent BV13.2
[17] = G. leopoldii (Gl11) UGent 09.48, suspension
[18] = G. leopoldii (Gl11) UGent 09.48
[19] = G. piotii (FB041) UGent FB041, suspension
[20] = G. piotii (Gp17) UGent 18.01(T)
[21] = G. piotii (Gp17) UGent 18.01(T), suspension
[22] = G. piotii (Gp22) UGent 21.28, suspension
[23] = G. piotii (P80275) UGent P80275
[24] = G. piotii (P80275) UGent P80275, suspension
[25] = MIC after 72 h, unpaired t-test of log2-transformed data

Molecule: CCC[C@@H]1C[C@@H](C(=O)N[C@@H]([C@H]2O[C@H](SC)[C@H](O)[C@@H](O)[C@H]2O)[C@H](C)Cl)N(C)C1 [CLI, clindamycin]
- MIC (Gardnerella swidsinskii): 0.125 µg/mL (≈ 0.294 µM)
- MIC90 (Gardnerella swidsinskii): 0.5 µg/mL (≈ 1.18 µM)
- MIC (Gardnerella swidsinskii; [3]): 0.5 µg/mL (≈ 1.18 µM)
- MIC (Gardnerella swidsinskii; [4]): 0.25 µg/mL (≈ 0.588 µM)
- MIC (Gardnerella swidsinskii; [5]): < 0.06 µg/mL
- MIC Range (Gardnerella swidsinskii; N=4 strains): <0.06 to 0.5 µg/mL
- MBC (Gardnerella swidsinskii; [6]): 1 µg/mL (≈ 2.35 µM)
- MBC (Gardnerella swidsinskii; read-out: MBC99.5, G. swidsinskii (BV139) UGent BV139.3): 0.25 µg/mL (≈ 0.588 µM)
- MBC (Gardnerella swidsinskii; [7]): 0.25 µg/mL (≈ 0.588 µM)
- MBC (Gardnerella swidsinskii; [8]): 0.5 µg/mL (≈ 1.18 µM)
- MIC90 (Gardnerella vaginalis): 0.5 µg/mL (≈ 1.18 µM)
- MBC (Gardnerella vaginalis; [9]): 0.5 µg/mL (≈ 1.18 µM)
- MIC (Gardnerella vaginalis; [10]): 0.25 µg/mL (≈ 0.588 µM)
- MIC (Gardnerella vaginalis; [11]): 0.25 µg/mL (≈ 0.588 µM)
- MIC (Gardnerella vaginalis; [12]): 0.5 µg/mL (≈ 1.18 µM)
- MIC Range (Gardnerella vaginalis; N=8 strains): <0.06 to 0.5 µg/mL
- MBC (Gardnerella vaginalis; read-out: MBC99.5, G. vaginalis (BV50) UGent BV50.1): 0.5 µg/mL (≈ 1.18 µM)
- MBC (Gardnerella vaginalis; [13]): 2 µg/mL (≈ 4.71 µM)
- MBC (Gardnerella vaginalis; [14]): 1 µg/mL (≈ 2.35 µM)
- N resistant (All Gardnerella; N=22, resistance ≥32 μg/mL MDZ, ≥8 μg/mL CLI): 0
- MIC Range (All Gardnerella; N=22 strains): <0.06-2^ μg/mL
- MIC90 (All Gardnerella; N=22 strains, read-out: MIC90): 0.5 µg/mL (≈ 1.18 µM)
- MIC (Gardnerella leopoldii; [15]): 0.5 µg/mL (≈ 1.18 µM)
- MBC (Gardnerella leopoldii; [16]): 1 µg/mL (≈ 2.35 µM)
- MIC (Gardnerella leopoldii; G. leopoldii (BV217) UGent BV217.1, suspension): 0.5 µg/mL (≈ 1.18 µM)
- MBC (Gardnerella leopoldii; G. leopoldii (BV217) UGent BV217.1): 1 µg/mL (≈ 2.35 µM)
- MIC (Gardnerella leopoldii; [17]): 0.5 µg/mL (≈ 1.18 µM)
- MBC (Gardnerella leopoldii; [18]): 1 µg/mL (≈ 2.35 µM)
- N resistant (Gardnerella leopoldii; N=3, resistance ≥32 μg/mL MDZ, ≥8 μg/mL CLI): 0
- MIC Range (Gardnerella leopoldii; N=3 strains): 0.5 µg/mL (≈ 1.18 µM)
- MIC90 (Gardnerella leopoldii; N=3 strains, read-out: MIC90): 0.5 µg/mL (≈ 1.18 µM)
- MBC (Gardnerella piotii; G. piotii (BV049) UGent BV049.1): 0.125 µg/mL (≈ 0.294 µM)
- MIC (Gardnerella piotii; G. piotii (BV140) UGent BV140.2, suspension): 2 µg/mL (≈ 4.71 µM)
- MBC (Gardnerella piotii; G. piotii (BV154) UGent BV154.1): 0.5 µg/mL (≈ 1.18 µM)
- MIC (Gardnerella piotii; G. piotii (BV154) UGent BV154.1, suspension): 0.5 µg/mL (≈ 1.18 µM)
- MBC (Gardnerella piotii; G. piotii (FB041) UGent FB041): 2 µg/mL (≈ 4.71 µM)
- MIC (Gardnerella piotii; [19]): 1 µg/mL (≈ 2.35 µM)
- MBC (Gardnerella piotii; [20]): 1 µg/mL (≈ 2.35 µM)
- MIC (Gardnerella piotii; [21]): 0.5 µg/mL (≈ 1.18 µM)
- MBC (Gardnerella piotii; G. piotii (Gp22) UGent 21.28): 0.5 µg/mL (≈ 1.18 µM)
- MIC (Gardnerella piotii; [22]): 0.25 µg/mL (≈ 0.588 µM)
- MBC (Gardnerella piotii; [23]): 1 µg/mL (≈ 2.35 µM)
- MIC (Gardnerella piotii; [24]): 0.5 µg/mL (≈ 1.18 µM)
- N resistant (Gardnerella piotii; N=7, resistance ≥32 μg/mL MDZ, ≥8 μg/mL CLI): 0
- MIC Range (Gardnerella piotii; N=7 strains): 0.125-2^ μg/mL
- MIC90 (Gardnerella piotii; N=7 strains, read-out: MIC90): 2 µg/mL (≈ 4.71 µM)
- MIC (Gardnerella piotii; G. piotii (BV049) UGent BV049.1, suspension): 0.125 µg/mL (≈ 0.294 µM)
- MBC (Gardnerella piotii; G. piotii (BV140) UGent BV140.2): 64 µg/mL (≈ 151 µM)

Molecule: CCS(=O)(=O)CCn1c([N+](=O)[O-])cnc1C [TDZ, tinidazole]
- MIC (Gardnerella swidsinskii; [3]): 128 µg/mL (≈ 518 µM)
- MIC (Gardnerella swidsinskii; [4]): > 128 µg/mL
- MIC (Gardnerella swidsinskii; [5]): > 128 µg/mL
- MBC (Gardnerella swidsinskii; [6]): > 128 µg/mL
- MBC (Gardnerella swidsinskii; [7]): > 128 µg/mL
- MBC (Gardnerella swidsinskii; [8]): > 128 µg/mL
- MBC (Gardnerella vaginalis; [9]): > 128 µg/mL
- MIC (Gardnerella vaginalis; [10]): 128 µg/mL (≈ 518 µM)
- MIC (Gardnerella vaginalis; [11]): 64 µg/mL (≈ 259 µM)
- MIC (Gardnerella vaginalis; [12]): 8 µg/mL (≈ 32.4 µM)
- MIC (Gardnerella vaginalis; G. vaginalis (FB061) UGent FB061-03, suspension, read-out: MIC): 4 µg/mL (≈ 16.2 µM)
- MBC (Gardnerella vaginalis; G. vaginalis (FB061) UGent FB061-03, read-out: MBC99.5): 32 µg/mL (≈ 129 µM)
- MIC (Gardnerella vaginalis; G. vaginalis (Gv1) UGent 09.07, suspension, read-out: MIC): > 128 µg/mL
- MBC (Gardnerella vaginalis; G. vaginalis (Gv1) UGent 09.07, read-out: MBC99.5): > 128 µg/mL
- MIC (Gardnerella vaginalis; G. vaginalis (Gv5) UGent 09.01, suspension, read-out: MIC): 4 µg/mL (≈ 16.2 µM)
- MBC (Gardnerella vaginalis; G. vaginalis (Gv5) UGent 09.01, read-out: MBC99.5): 8 µg/mL (≈ 32.4 µM)
- MIC (Gardnerella vaginalis; G. vaginalis (Gv8) UGent 25.49, suspension, read-out: MIC): 4 µg/mL (≈ 16.2 µM)
- MBC (Gardnerella vaginalis; G. vaginalis (Gv8) UGent 25.49, read-out: MBC99.5): 32 µg/mL (≈ 129 µM)
- MBC (Gardnerella vaginalis; [13]): 128 µg/mL (≈ 518 µM)
- MBC (Gardnerella vaginalis; [14]): 64 µg/mL (≈ 259 µM)
- MIC (Gardnerella leopoldii; [15]): > 128 µg/mL
- MBC (Gardnerella leopoldii; [16]): 128 µg/mL (≈ 518 µM)
- MIC (Gardnerella leopoldii; [17]): 128 µg/mL (≈ 518 µM)
- MBC (Gardnerella leopoldii; [18]): > 128 µg/mL
- MBC (Gardnerella piotii; G. piotii (FB041) UGent FB041): 128 µg/mL (≈ 518 µM)
- MIC (Gardnerella piotii; [19]): 64 µg/mL (≈ 259 µM)
- MBC (Gardnerella piotii; [20]): > 128 µg/mL
- MIC (Gardnerella piotii; [21]): 64 µg/mL (≈ 259 µM)
- MBC (Gardnerella piotii; G. piotii (Gp22) UGent 21.28): > 128 µg/mL
- MIC (Gardnerella piotii; [22]): > 128 µg/mL
- MBC (Gardnerella piotii; [23]): 128 µg/mL (≈ 518 µM)
- MIC (Gardnerella piotii; [24]): 32 µg/mL (≈ 129 µM)

B1: H2B10B11: recombinant endolysin, SEQ ID NO: 37; differs from H2B10 in one amino acid exchange in one of the binding domains (protein)
chain: MSKRGIDVSEWQGDIDFNAVKASGVEFVIIRAGYGIGCKDKWFEQNYRKAKTCGLDVGAYWYSYANSGFEAAEEAQSCVNMLSGKSFEYPVYFDLEEKSQLNRGRAFCDSLITGFCNKLESCGYYAGFYTSLSTANNLVSAHVRNRYALWIAQWNTHCSYQGSYGLWQYSSSGSVPGVAGRVDMDYAYVDYPSIIKNVGLNGYKNGGSYTAPQISSIDEVAREVINGDWGNGNERKQRLTSAGYDYASVQNKVNELLGVKAYRKSVDELAREVIRGTWGNGSTRKQRLTQAGYDYDAVQKRVNELL
modifications: H2B10B11
- Susceptibility of BV patient isolates of various origins (FIG. 6) [1]: susceptible
- MIC and MBC99.5 values, readout after 48 h compared to 72 h ([1]; 15 strains determined both after 48 h and 72 h): one concentration lower
- difference between the MICs of G. vaginalis and G. leopoldii/swidsinskii [1, 25]: no significant difference
- difference in susceptibility between isolates from African and European BV patients [1, 25]: no significant difference
- median MBC99.5 ([2]; 18 in-house BV patient isolates): 8 µg/mL
- median MIC ([2]; 18 in-house BV patient isolates, H2B10B11 read after 72 h): 2 µg/mL
- MIC90 ([2]; panel of 18 BV patient isolates): 4.4 µg/mL
- Lytic effect on MDZ-resistant Gardnerella isolates (FIG. 5) ([2]; panel of n=18 BV patient isolates): maintained
- inhibiting concentration (MIC) ([2]; the 10 MDZ-resistant isolates of the panel of 18): 4 to 8 µg/mL

Reference: patent publication US20250144186A1, “NOVEL THERAPEUTIC USES OF GARDNERELLA ENDOLYSINS” (priority 2022, published 2025)
